Source: paper PMC6409085, “Three odorant-binding proteins are involved in the behavioral response of Sogatella furcifera to rice plant volatiles” (PeerJ, 2019)
Values joined by “and” are separate entries in the source; they are usually repeats but may differ in a detail not shown here. Equal entries are not always repeated.

Experiments:
[1] = biological target: SfurOBP1 (Sogatella furcifera, UniProt V5T8N5); assay: biochemical; assay type: binding; details: for Fluorescence competitive binding assay, fluorescence intensity: OBP1, three replicate columns
Sequence of SfurOBP1 (V5T8N5 entry or part of it): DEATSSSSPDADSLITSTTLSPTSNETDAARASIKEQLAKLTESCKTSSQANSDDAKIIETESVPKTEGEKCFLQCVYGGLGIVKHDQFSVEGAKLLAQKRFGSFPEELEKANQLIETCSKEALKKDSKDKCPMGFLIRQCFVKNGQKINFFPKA
How it was run: (§1)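 K1-NPN came from titrating 2.0 µM protein (50 mM Tris-HCl, pH 7.4) with 1-NPN. Odorants at 2-20 µM then competed against 2.0 µM protein plus 2.0 µM 1-NPN for 2 min, with excitation at 337 nm and emission recorded over 390-490 nm. IC50 values were converted to Ki via Ki = IC50/(1 + [1-NPN]/K1-NPN).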

[2] = biological target: SfurOBP11 (Sogatella furcifera, UniProt V5T6E3); assay: biochemical; assay type: binding
Sequence of SfurOBP11 (V5T6E3 entry or part of it): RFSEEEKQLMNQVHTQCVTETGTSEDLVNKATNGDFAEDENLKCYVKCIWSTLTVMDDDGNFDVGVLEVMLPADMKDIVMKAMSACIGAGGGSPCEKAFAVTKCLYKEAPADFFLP
How it was run: as §1

[3] = biological target: SfurOBP2 (Sogatella furcifera, UniProt V5T759); assay: biochemical; assay type: binding
Sequence of SfurOBP2 (V5T759 entry or part of it): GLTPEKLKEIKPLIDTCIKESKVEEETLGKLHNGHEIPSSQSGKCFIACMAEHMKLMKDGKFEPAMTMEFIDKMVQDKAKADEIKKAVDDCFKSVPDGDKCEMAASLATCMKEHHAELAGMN
How it was run: as §1

[4] = biological target: SfurOBP3 (Sogatella furcifera, UniProt V5T818); assay: biochemical; assay type: binding; details: for Fluorescence competitive binding assay, fluorescence intensity: OBP3, three replicate columns
Sequence of SfurOBP3 (V5T818 entry or part of it): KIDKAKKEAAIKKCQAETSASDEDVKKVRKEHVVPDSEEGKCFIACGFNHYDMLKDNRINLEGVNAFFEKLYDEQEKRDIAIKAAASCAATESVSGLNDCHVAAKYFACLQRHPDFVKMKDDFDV
How it was run: as §1

[5] = system: S. furcifera adults; assay: Y-tube olfactometer behavioral trials; assay type: in vivo, Sogatella furcifera; details: odorant 50 µL/L vs hexane
How it was run: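 Single S. furcifera adults (2 days post-emergence, starved 0.5 h) chose between odorant (100 µL of 50 µL/L on filter paper) and hexane control in a glass Y-tube, charcoal-filtered humidified air 300 mL/min per arm, 25 ± 1 °C, 50% RH. Choice scored if insect passed half an arm and stayed >1 min within 10 min; 45 insects per compound, chi-squared test.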

CCCCCCCC [n-octane]
Fluorescence competitive binding assay, fluorescence intensity ([1]; ligand concentration 2 (μM)): 5925 and 7991 and 7456 | Fluorescence competitive binding assay, fluorescence intensity ([1]; ligand concentration 4 (μM)): 8340 and 7163 and 7902 | Fluorescence competitive binding assay, fluorescence intensity ([1]; ligand concentration 6 (μM)): 8616 and 7456 and 8995 | Fluorescence competitive binding assay, fluorescence intensity ([1]; ligand concentration 8 (μM)): 8020 and 7176 and 8029 | Fluorescence competitive binding assay, fluorescence intensity ([1]; ligand concentration 10 (μM)): 7070 and 8613 and 8224 | Fluorescence competitive binding assay, fluorescence intensity ([1]; ligand concentration 12 (μM)): 6680 and 8217 and 6786 | Fluorescence competitive binding assay, fluorescence intensity ([1]; ligand concentration 14 (μM)): 7048 and 6801 and 7552 | Fluorescence competitive binding assay, fluorescence intensity ([1]; ligand concentration 16 (μM)): 6817 and 7163 and 7002 | Fluorescence competitive binding assay, fluorescence intensity ([1]; ligand concentration 18 (μM)): 8094 and 8514 and 8878 | Fluorescence competitive binding assay, fluorescence intensity ([1]; ligand concentration 20 (μM)): 7869 and 7702 and 8440 | IC50 ([1]; SfurOBP1, protein and 1-NPN both 2.0 µM, competitor 2-20 µM, read-out: IC50): > 20 µM | IC50 ([2]; SfurOBP11, protein and 1-NPN both 2.0 µM, competitor 2-20 µM, read-out: IC50): > 20 µM | Fluorescence intensity, fluorescence competitive binding assay, OBP11 ([2]; ligand concentration 2, replicate 1): 29315 | Fluorescence intensity, fluorescence competitive binding assay, OBP11 ([2]; ligand concentration 2, replicate 2): 29331 | Fluorescence intensity, fluorescence competitive binding assay, OBP11 ([2]; ligand concentration 2, replicate 3): 31569 | Fluorescence intensity, fluorescence competitive binding assay, OBP11 ([2]; ligand concentration 4, replicate 1): 28278 | Fluorescence intensity, fluorescence competitive binding assay, OBP11 ([2]; ligand concentration 4, replicate 2): 30015 | Fluorescence intensity, fluorescence competitive binding assay, OBP11 ([2]; ligand concentration 4, replicate 3): 31065 | Fluorescence intensity, fluorescence competitive binding assay, OBP11 ([2]; ligand concentration 6, replicate 1): 29774 | Fluorescence intensity, fluorescence competitive binding assay, OBP11 ([2]; ligand concentration 6, replicate 2): 29054 | Fluorescence intensity, fluorescence competitive binding assay, OBP11 ([2]; ligand concentration 6, replicate 3): 29894 | Fluorescence intensity, fluorescence competitive binding assay, OBP11 ([2]; ligand concentration 8, replicate 1): 27943 | Fluorescence intensity, fluorescence competitive binding assay, OBP11 ([2]; ligand concentration 8, replicate 2): 28064 | Fluorescence intensity, fluorescence competitive binding assay, OBP11 ([2]; ligand concentration 8, replicate 3): 27821 | Fluorescence intensity, fluorescence competitive binding assay, OBP11 ([2]; ligand concentration 10, replicate 1): 27525 | Fluorescence intensity, fluorescence competitive binding assay, OBP11 ([2]; ligand concentration 10, replicate 2): 26078 | Fluorescence intensity, fluorescence competitive binding assay, OBP11 ([2]; ligand concentration 10, replicate 3): 27163 | Fluorescence intensity, fluorescence competitive binding assay, OBP11 ([2]; ligand concentration 12, replicate 1): 24273 | Fluorescence intensity, fluorescence competitive binding assay, OBP11 ([2]; ligand concentration 12, replicate 2): 26556 | Fluorescence intensity, fluorescence competitive binding assay, OBP11 ([2]; ligand concentration 12, replicate 3): 26721 | Fluorescence intensity, fluorescence competitive binding assay, OBP11 ([2]; ligand concentration 14, replicate 1): 22920 | Fluorescence intensity, fluorescence competitive binding assay, OBP11 ([2]; ligand concentration 14, replicate 2): 23793 | Fluorescence intensity, fluorescence competitive binding assay, OBP11 ([2]; ligand concentration 14, replicate 3): 23357 | Fluorescence intensity, fluorescence competitive binding assay, OBP11 ([2]; ligand concentration 16, replicate 1): 19613 | Fluorescence intensity, fluorescence competitive binding assay, OBP11 ([2]; ligand concentration 16, replicate 2): 20535 | Fluorescence intensity, fluorescence competitive binding assay, OBP11 ([2]; ligand concentration 16, replicate 3): 20285 | Fluorescence intensity, fluorescence competitive binding assay, OBP11 ([2]; ligand concentration 18, replicate 1): 26966 | Fluorescence intensity, fluorescence competitive binding assay, OBP11 ([2]; ligand concentration 18, replicate 2): 26281 | Fluorescence intensity, fluorescence competitive binding assay, OBP11 ([2]; ligand concentration 18, replicate 3): 26291 | Fluorescence intensity, fluorescence competitive binding assay, OBP11 ([2]; ligand concentration 20, replicate 1): 26611 | Fluorescence intensity, fluorescence competitive binding assay, OBP11 ([2]; ligand concentration 20, replicate 2): 26798 | Fluorescence intensity, fluorescence competitive binding assay, OBP11 ([2]; ligand concentration 20, replicate 3): 25454 | IC50 ([3]; SfurOBP2, protein and 1-NPN both 2.0 µM, competitor 2-20 µM, read-out: IC50): 19.9 µM | Fluorescence competitive binding assay, OBP2 (raw fluorescence reading) ([3]; ligand concentration 2 (unit not given), replicate column 1 of 3): 18817 | Fluorescence competitive binding assay, OBP2 (raw fluorescence reading) ([3]; ligand concentration 2 (unit not given), replicate column 2 of 3): 16925 | Fluorescence competitive binding assay, OBP2 (raw fluorescence reading) ([3]; ligand concentration 2 (unit not given), replicate column 3 of 3): 16813 | Fluorescence competitive binding assay, OBP2 (raw fluorescence reading) ([3]; ligand concentration 4 (unit not given), replicate column 1 of 3): 17604 | Fluorescence competitive binding assay, OBP2 (raw fluorescence reading) ([3]; ligand concentration 4 (unit not given), replicate column 2 of 3): 17269 | Fluorescence competitive binding assay, OBP2 (raw fluorescence reading) ([3]; ligand concentration 4 (unit not given), replicate column 3 of 3): 15635 | Fluorescence competitive binding assay, OBP2 (raw fluorescence reading) ([3]; ligand concentration 6 (unit not given), replicate column 1 of 3): 16307 | Fluorescence competitive binding assay, OBP2 (raw fluorescence reading) ([3]; ligand concentration 6 (unit not given), replicate column 2 of 3): 16391 | Fluorescence competitive binding assay, OBP2 (raw fluorescence reading) ([3]; ligand concentration 6 (unit not given), replicate column 3 of 3): 15566 | Fluorescence competitive binding assay, OBP2 (raw fluorescence reading) ([3]; ligand concentration 8 (unit not given), replicate column 1 of 3): 15494 | Fluorescence competitive binding assay, OBP2 (raw fluorescence reading) ([3]; ligand concentration 8 (unit not given), replicate column 2 of 3): 15122 | Fluorescence competitive binding assay, OBP2 (raw fluorescence reading) ([3]; ligand concentration 8 (unit not given), replicate column 3 of 3): 16014 | Fluorescence competitive binding assay, OBP2 (raw fluorescence reading) ([3]; ligand concentration 10 (unit not given), replicate column 1 of 3): 15063 | Fluorescence competitive binding assay, OBP2 (raw fluorescence reading) ([3]; ligand concentration 10 (unit not given), replicate column 2 of 3): 14978 | Fluorescence competitive binding assay, OBP2 (raw fluorescence reading) ([3]; ligand concentration 10 (unit not given), replicate column 3 of 3): 15010 | Fluorescence competitive binding assay, OBP2 (raw fluorescence reading) ([3]; ligand concentration 12 (unit not given), replicate column 1 of 3): 12606 | Fluorescence competitive binding assay, OBP2 (raw fluorescence reading) ([3]; ligand concentration 12 (unit not given), replicate column 2 of 3): 12327 | Fluorescence competitive binding assay, OBP2 (raw fluorescence reading) ([3]; ligand concentration 12 (unit not given), replicate column 3 of 3): 12885 | Fluorescence competitive binding assay, OBP2 (raw fluorescence reading) ([3]; ligand concentration 14 (unit not given), replicate column 1 of 3): 12907 | Fluorescence competitive binding assay, OBP2 (raw fluorescence reading) ([3]; ligand concentration 14 (unit not given), replicate column 2 of 3): 11889 | Fluorescence competitive binding assay, OBP2 (raw fluorescence reading) ([3]; ligand concentration 14 (unit not given), replicate column 3 of 3): 12746 | Fluorescence competitive binding assay, OBP2 (raw fluorescence reading) ([3]; ligand concentration 16 (unit not given), replicate column 1 of 3): 11757 | Fluorescence competitive binding assay, OBP2 (raw fluorescence reading) ([3]; ligand concentration 16 (unit not given), replicate column 2 of 3): 11955 | Fluorescence competitive binding assay, OBP2 (raw fluorescence reading) ([3]; ligand concentration 16 (unit not given), replicate column 3 of 3): 11106 | Fluorescence competitive binding assay, OBP2 (raw fluorescence reading) ([3]; ligand concentration 18 (unit not given), replicate column 1 of 3): 11096 | Fluorescence competitive binding assay, OBP2 (raw fluorescence reading) ([3]; ligand concentration 18 (unit not given), replicate column 2 of 3): 11451 | Fluorescence competitive binding assay, OBP2 (raw fluorescence reading) ([3]; ligand concentration 18 (unit not given), replicate column 3 of 3): 11415 | Fluorescence competitive binding assay, OBP2 (raw fluorescence reading) ([3]; ligand concentration 20 (unit not given), replicate column 1 of 3): 12132 | Fluorescence competitive binding assay, OBP2 (raw fluorescence reading) ([3]; ligand concentration 20 (unit not given), replicate column 2 of 3): 10679 | Fluorescence competitive binding assay, OBP2 (raw fluorescence reading) ([3]; ligand concentration 20 (unit not given), replicate column 3 of 3): 10932 | Fluorescence competitive binding assay, fluorescence intensity ([4]; ligand concentration 2): 68170 and 67677 and 64610 | Fluorescence competitive binding assay, fluorescence intensity ([4]; ligand concentration 4): 67293 and 62720 and 65655 | Fluorescence competitive binding assay, fluorescence intensity ([4]; ligand concentration 6): 76553 and 64631 and 57162 | Fluorescence competitive binding assay, fluorescence intensity ([4]; ligand concentration 8): 71829 and 61798 and 56284 | Fluorescence competitive binding assay, fluorescence intensity ([4]; ligand concentration 10): 59554 and 55292 and 53530 | Fluorescence competitive binding assay, fluorescence intensity ([4]; ligand concentration 12): 55099 and 48687 and 52349 | Fluorescence competitive binding assay, fluorescence intensity ([4]; ligand concentration 14): 54529 and 46904 and 51749 | Fluorescence competitive binding assay, fluorescence intensity ([4]; ligand concentration 16): 48833 and 47113 and 45049 | Fluorescence competitive binding assay, fluorescence intensity ([4]; ligand concentration 18): 45841 and 47813 and 46502 | Fluorescence competitive binding assay, fluorescence intensity ([4]; ligand concentration 20): 46899 and 47179 and 42858 | IC50 ([4]; SfurOBP3, protein and 1-NPN both 2.0 µM, competitor 2-20 µM, read-out: IC50): > 20 µM | behavioral response of S. furcifera (in words) [5]: significantly repelled | number of insects choosing hexane arm ([5]; adults): 19 | number of insects choosing volatilies arm ([5]; adults): 10 | number of insects failed (no choice) ([5]; adults): 11
